Measured values: patent US20260226084A1, “DUAL RAF AND TUBULIN INHIBITORS AND METHODS OF USE THEREOF” (Deciphera Pharmaceuticals, LLC, priority 2023, published 2026)
Where two headings read alike, the source gives them in different places.

Key:
[1] = system: Pa16c cells; experiment: Pa16c Cell Proliferation Assay; type: cell-based; details: Table 2, read-out: Inhibition of cell proliferation in Pa16c (IC50 class)
Experimental: Pa16c cells are obtained from Dr. Channing Der, University of North Carolina at Chapel Hill. Briefly, cells are grown in Dulbecco's Modified Eagle Medium supplemented with 10% characterized fetal bovine serum (Invitrogen, Carlsbad, CA) and 1% Penicillin/Streptomycin/L-Glutamine at 37° C., 5% CO2, and 95% humidity. Cells are expanded until reaching 70-95% confluency at which point they are sub-cultured or harvested for assay use. A serial dilution of test compound is dispensed into a 384-well black clear bottom plate in triplicate. 750 cells are added per well in 50 μL complete growth medium in the 384-well plate. Plates are incubated for 67 to 72 h at 37° C., 5% CO2, and 95% humidity. At the end of the incubation, 40 μL of a 440 μM solution of resazurin (Sigma, St. Louis, MO) in PBS is added to each well of the plate and plates are incubated for an additional 18 to 24 hours at 37° C., 5% CO2, and 95% humidity. Plates are read on a Synergy2 or equivalent reader (Biotek, Winooski, VT) using an excitation of 540 nm and an emission of 600 nm. Data is analyzed using Prism software (Graphpad, San Diego, CA) to calculate IC50 values.

[2] = biological target: T1, B-Raf kinase (SEQ ID NO: 1) (Homo sapiens, UniProt P15056); experiment: Biochemical Assay for B-Raf (coupled pyruvate kinase/lactate dehydrogenase assay); details: 1 mM ATP; read-out: BRAF (inhibition of biochemical activity, IC50)
T1 construct: GST (N); purchased Sigma
T1 sequence (P15056 416-766): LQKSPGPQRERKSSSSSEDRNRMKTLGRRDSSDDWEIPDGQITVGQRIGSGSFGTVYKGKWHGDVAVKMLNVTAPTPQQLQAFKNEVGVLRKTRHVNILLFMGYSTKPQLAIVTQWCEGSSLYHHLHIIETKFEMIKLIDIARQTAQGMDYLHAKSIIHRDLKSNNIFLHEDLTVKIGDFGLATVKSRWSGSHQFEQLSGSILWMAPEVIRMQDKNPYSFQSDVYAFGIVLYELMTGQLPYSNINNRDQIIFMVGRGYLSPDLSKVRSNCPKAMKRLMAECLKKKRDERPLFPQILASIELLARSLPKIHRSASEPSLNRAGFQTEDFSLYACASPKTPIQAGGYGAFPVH

[3] = system: MiaPaca-2 cells; experiment: MiaPaca-2 Cell Proliferation Assay; type: cell-based; details: Table 2, read-out: Inhibition of cell proliferation in MiaPaca-2 (IC50 class)
Experimental: Miapaca-2 cells (catalog #CRL-1420) are obtained from the American Type Culture Collect (ATTC, Manassas, VA). Briefly, cells were grown in DMVEM supplemented with 10 characterized fetal bovine serum (Invitrogen, Carlsbad, CA), 2.5% New Zealand sourced horse serum and 1 Penicillin/Streptomycin/L-Glutamine at 37° C., 5 CO2, and 95% humidity. Cells are expanded until reaching 70-95% confluency at which point they are sub-cultured or harvested for assay use. A serial dilution of test compound is dispensed into a 96-well black clear bottom plate in triplicate. Three thousand cells are added per well in 200 μL complete growth medium in the 96-well plate. Plates are incubated for 67 to 72 h at 37° C., 5% CO2, and 95% humidity. At the end of the incubation, 40 μL of a 440 μM solution of resazurin (Sigma, St. Louis, MO) in PBS is added to each well of the plate and plates are incubated for an additional 5 to 6 h at 37° C., 5% CO2, and 95% humidity. Plates are read on a Synergy2 or equivalent reader (Biotek, Winooski VT) using an excitation of 540 nm and an emission of 600 nm. Data is analyzed using Prism software (Graphpad, San Diego, CA) to calculate IC50 values.

[4] = biological target: T2, C-Raf kinase (SEQ ID NO: 2) (Homo sapiens, UniProt P04049, Y340D/Y341D); experiment: Biochemical Assay for C-Raf (coupled pyruvate kinase/lactate dehydrogenase assay); details: 1 mM ATP; read-out: CRAF (inhibition of biochemical activity, IC50)
T2 construct: C-Raf residues 306-end; Y340D, Y341D with; GST (N); purchased Sigma
T2 sequence (P04049 307-648 Y340D/Y341D): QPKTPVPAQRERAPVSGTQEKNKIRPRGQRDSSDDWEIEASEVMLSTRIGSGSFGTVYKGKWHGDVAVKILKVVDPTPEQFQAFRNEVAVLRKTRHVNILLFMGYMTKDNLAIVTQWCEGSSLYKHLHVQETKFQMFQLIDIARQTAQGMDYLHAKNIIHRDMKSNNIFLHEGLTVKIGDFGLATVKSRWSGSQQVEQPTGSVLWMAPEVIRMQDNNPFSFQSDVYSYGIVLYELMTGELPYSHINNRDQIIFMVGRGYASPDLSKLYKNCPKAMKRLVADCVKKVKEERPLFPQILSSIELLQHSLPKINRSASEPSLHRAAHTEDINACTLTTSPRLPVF

[5] = system: HCT-116 cells; experiment: HCT-116 Cell Proliferation Assay; type: cell-based; details: Homo sapiens, HCT-116, HCT-116 cells; Table 2; read-out: Inhibition of cell proliferation in HCT-116 (IC50 class)
Experimental: HCT-116 cells (catalog #CCL-247) are obtained from the American Type Culture Collect (ATCC, Manassas, VA). Briefly, cells are grown in McCoy's 5A supplemented with 10% characterized fetal bovine serum (Invitrogen, Carlsbad, CA) and 1% Penicillin/Streptomycin/L-Glutamine at 37° C., 5% CO2, and 95% humidity. Cells are expanded until reaching 70-95% confluency at which point they are subcultured or harvested for assay use. A serial dilution of test compound is dispensed into a 384-well black clear bottom plate in triplicate. 375 cells are added per well in 50 μL complete growth medium in the 384-well plate. Plates are incubated for 67 to 72 hours at 37° C., 5% CO2, and 95% humidity. At the end of the incubation, 40 μL of a […] solution of resazurin (Sigma, St. Louis, MO) in PBS is added to each well of the plate and plates are incubated for an additional 4 to 5 h at 37° C., 5% CO2, and 95% humidity. Plates are read on a Synergy2 or equivalent reader (Biotek, Winooski, VT) using an excitation of 540 nm and an emission of 600 nm. Data is analyzed using Prism software (Graphpad, San Diego, CA) to calculate IC50 values.

[6] = system: HPAF-II cells; experiment: HPAF-II Cell Proliferation Assay; type: cell-based; details: Homo sapiens, HPAF-II, HPAF-II cells; Table 2; read-out: Inhibition of cell proliferation in HPAF-II (IC50 class)
Experimental: HPAF-II cells (catalog #CRL-1997) are obtained from the American Type Culture Collect (ATCC, Manassas, VA). Briefly, cells are grown in Minimum Essential Media supplemented with 10% characterized fetal bovine serum (Invitrogen, Carlsbad, CA) and 1% Penicillin/Streptomycin/L-Glutamine at 37° C., 5% CO2, and 95% humidity. Cells are expanded until reaching 70-95% confluency at which point they are sub-cultured or harvested for assay use. A serial dilution of test compound is dispensed into a 384-well black clear bottom plate in triplicate. 750 cells are added per well in 50 μL complete growth medium in the 384-well plate. Plates are incubated for 115 to 120 hours at 37° C., 5% CO2, and 95% humidity. At the end of the incubation, 40 μL of a 440 μM solution of resazurin (Sigma, St. Louis, MO) in PBS is added to each well of the plate and plates are incubated for an additional 18 to 24 hours at 37° C., 5% CO2, and 95% humidity. Plates are read on a Synergy2 or equivalent reader (Biotek, Winooski, VT) using an excitation of 540 nm and an emission of 600 nm. Data is analyzed using Prism software (Graphpad, San Diego, CA) to calculate IC50 values.

[7] = Homo sapiens, MIA PaCa-2, MiaPaca-2 cells

IC50 [2] [nM]	IC50 [3, 7] [nM]	IC50 [4] [nM]	IC50 [5] [nM]	Structure (SMILES)	IC50 [1] [nM]	IC50 [6] [nM]	IC50 ([3]; MiaPaca-2 cells) [nM]
100 to 500	100 to 500	< 100	100 to 500	Cc1ccc(NC(=O)c2cc(C(F)(F)F)cnn2)cc1-c1ccnc(-c2cnn(C)c2)c1 [Example 114]	100 to 500	100 to 500	–
< 100	100 to 500	< 100	100 to 500	CNCC(=O)Nc1cc(-c2cc(-c3cc(NC(=O)c4cc(C(F)(F)F)cnn4)ccc3C)ccn2)ccn1 [Example 88]	1000 to 10000	100 to 500	–
100 to 500	100 to 500	< 100	100 to 500	Cc1ccc(NC(=O)c2cc(C(F)(F)F)cnn2)cc1-c1ccnc(-c2ccnc(NC(=O)CC3CC3)c2)c1 [Example 22]	< 100	< 100	–
100 to 500	100 to 500	100 to 500	100 to 500	Cc1ccc(NC(=O)c2cc(C(F)(F)F)cnn2)cc1-c1ccnc(-c2ccoc2)c1 [Example 145]	100 to 500	100 to 500	–
< 100	100 to 500	< 100	< 100	Cc1ccc(NC(=O)c2cncc(C(C)(F)F)c2)cc1-c1cncc(-c2cc(NC(=O)C3CC3)ncn2)c1 [Example 109]	1000 to 10000	100 to 500	–
< 100	1000 to 10000	< 100	1000 to 10000	Cc1ccc(NC(=O)c2cncc(C(F)(F)F)n2)cc1-c1ccnc(-c2ccnc(NC(=O)C3CC3)c2)c1 [Example 84]	1000 to 10000	1000 to 10000	–
500 to 1000	100 to 500	100 to 500	< 100	Cc1ccc(NC(=O)c2ccc(C(F)F)nn2)cc1-c1ccnc(-c2ccnc(NC(=O)C3CC3)c2)c1 [Example 58]	1000 to 10000	100 to 500	–
100 to 500	500 to 1000	< 100	–	CC(=O)Nc1cc(-c2cccc(-c3cc(NC(=O)c4ccc(C(F)F)nc4)ccc3C)n2)ccn1 [Example 85]	–	–	–
1000 to 10000	1000 to 10000	100 to 500	1000 to 10000	COCC(=O)Nc1cc(-c2cncc(-c3cc(NC(=O)c4ccc(C(F)F)nc4)ccc3C)n2)ccn1 [Example 89]	–	–	–
100 to 500	500 to 1000	< 100	–	COC(=O)Nc1cc(-c2cccc(-c3cc(NC(=O)c4ccc(C(F)(F)F)nc4)cnc3C)c2)ccn1 [Example 32]	–	–	–
–	100 to 500	–	100 to 500	Cc1ccc(NC(=O)c2cc(C(F)(F)F)cnn2)cc1-c1ccnc(-c2cnsc2)c1 [Example 132]	100 to 500	100 to 500	–
< 100	500 to 1000	< 100	100 to 500	Cc1ccc(NC(=O)c2ccc(C(F)F)nc2)cc1-c1ccnc(-c2ccnc(NC(=O)C3CC3)c2)c1 [Example 25]	–	–	–
100 to 500	< 100	100 to 500	100 to 500	Cc1ccc(NC(=O)c2cc(C#N)cnn2)cc1-c1cc(N[C@H](C)CO)nc(-c2cn[nH]c2)c1 [Example 152]	–	500 to 1000	–
100 to 500	1000 to 10000	< 100	–	CC(=O)Nc1cc(-c2cc(-c3cc(NC(=O)c4ccc(C(F)(F)F)nc4)ccc3C)cn(C)c2=O)ccn1 [Example 28]	–	–	–
1000 to 10000	< 100	500 to 1000	–	COC(=O)Nc1cc(-c2cc(-c3cc(NC(=O)c4ccc(C(F)(F)F)nc4)c(F)cc3C)nc(C)n2)ccn1 [Example 21]	–	–	–
100 to 500	< 100	< 100	< 100	COC(=O)Nc1cc(-c2cncc(-c3cc(NC(=O)c4ccc(C(F)(F)F)nc4)c(F)cc3C)c2)ccn1 [Example 3, methyl (5-(4-fluoro-2-methyl-5-(6-(trifluoromethyl)nicotinamido)phenyl)-[3,4′-bipyridin]-2′-yl)carbamate]	–	–	–
1000 to 10000	1000 to 10000	1000 to 10000	–	CC(=O)Nc1cc(-c2cc(-c3cc(NC(=O)c4ccc(C(F)(F)F)nc4)ccc3C)nn(C)c2=O)ccn1 [Example 12]	–	–	–
100 to 500	100 to 500	< 100	–	COC(=O)Nc1cc(-c2cncc(-c3cc(NC(=O)c4ccc(C(F)(F)F)nc4)ccc3C)c2)ccn1 [Example 74]	–	–	–
100 to 500	100 to 500	< 100	100 to 500	Cc1ccc(NC(=O)c2cc(C(F)(F)F)cnn2)cc1-c1cc(N[C@H](C)CO)nc(-c2c[nH]nc2N)c1 [Example 153]	–	1000 to 10000	–
100 to 500	100 to 500	< 100	–	CC(=O)Nc1cc(-c2nccc(-c3cc(NC(=O)c4ccc(C(F)F)nc4)ccc3C)n2)ccn1 [Example 14]	–	–	–
500 to 1000	1000 to 10000	500 to 1000	–	Cc1ccc(NC(=O)c2ccc(C(F)(F)F)nc2)cc1-c1cncc(-c2cc(N)ncn2)c1 [Example 73]	–	–	–
1000 to 10000	1000 to 10000	100 to 500	–	COC(=O)Nc1cc(-c2cc(-c3cc(NC(=O)c4ccc(C(F)(F)F)nc4)cnc3C)ccn2)ccn1 [Example 31]	–	–	–
500 to 1000	1000 to 10000	< 100	–	COC(=O)Nc1cc(-c2cccc(-c3cc(NC(=O)c4ccc(C(F)(F)F)nc4)cnc3C)c2)ncn1 [Example 33]	–	–	–
1000 to 10000	1000 to 10000	1000 to 10000	–	CC(=O)Nc1cc(-c2cc(-c3cc(NC(=O)c4ccc(C(F)(F)F)nc4)ccc3C)cn(CCO)c2=O)ccn1 [Example 29]	–	–	–

Structure (SMILES)	IC50 [2] [nM]	IC50 [3, 7] [nM]	IC50 [4] [nM]	IC50 [5] [nM]	IC50 [1] [nM]	IC50 [6] [nM]	IC50 ([3]; MiaPaca-2 cells) [nM]
COC(=O)Nc1cc(-c2cc(-c3cc(NC(=O)c4ccc(C(F)(F)F)nc4)ccc3C)cc(OCCO)n2)ccn1 [Example 77]	< 100	–	< 100	–	–	–	1000 to 10000
COC(=O)Nc1cc(-c2nccc(-c3cc(NC(=O)c4ccc(C(F)(F)F)nc4)ccc3C)n2)ccn1 [Example 30]	1000 to 10000	–	< 100	–	–	–	1000 to 10000
